We go through 27 compounds from patent US20240158370A1, “CK1 alpha AND DUAL CK1 alpha / GSPT1 DEGRADING COMPOUNDS” (Innovo Therapeutics, Inc., priority 2022, published 2024).

As usually defined, the DC50 is the concentration at which degradation of the target reaches its halfway point. A lower DC50 goes with a more potent degrader.

The target of one experiment is T1, CK1α (Homo sapiens, UniProt P48729+Q96SW2).
T1 construct: CSNK1A1-HiBit KI HEK293(LgBit) Cells; host or cells: HEK293(LgBit) knock-in cells
T1 sequence (P48729 whole entry): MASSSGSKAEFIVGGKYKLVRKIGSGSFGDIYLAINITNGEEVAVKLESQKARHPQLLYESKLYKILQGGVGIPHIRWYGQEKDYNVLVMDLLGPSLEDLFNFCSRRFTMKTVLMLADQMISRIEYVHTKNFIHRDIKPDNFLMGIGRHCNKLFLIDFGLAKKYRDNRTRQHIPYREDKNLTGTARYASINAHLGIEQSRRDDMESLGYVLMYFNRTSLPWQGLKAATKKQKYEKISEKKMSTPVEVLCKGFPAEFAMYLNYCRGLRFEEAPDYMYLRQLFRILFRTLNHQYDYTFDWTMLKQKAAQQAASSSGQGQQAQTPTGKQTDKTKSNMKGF
T1 sequence (Q96SW2 whole entry): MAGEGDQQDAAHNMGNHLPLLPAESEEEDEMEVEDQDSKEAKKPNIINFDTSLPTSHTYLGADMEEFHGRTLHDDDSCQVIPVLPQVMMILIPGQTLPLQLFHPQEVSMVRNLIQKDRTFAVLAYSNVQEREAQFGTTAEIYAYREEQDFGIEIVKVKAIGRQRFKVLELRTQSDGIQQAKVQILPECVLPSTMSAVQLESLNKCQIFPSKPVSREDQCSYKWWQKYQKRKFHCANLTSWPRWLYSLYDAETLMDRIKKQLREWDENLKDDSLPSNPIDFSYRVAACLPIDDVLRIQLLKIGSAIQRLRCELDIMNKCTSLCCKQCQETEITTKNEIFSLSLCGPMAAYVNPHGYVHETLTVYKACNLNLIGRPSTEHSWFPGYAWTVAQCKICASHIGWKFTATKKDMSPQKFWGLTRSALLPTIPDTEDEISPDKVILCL
T1 sequence (Q16531 whole entry partner): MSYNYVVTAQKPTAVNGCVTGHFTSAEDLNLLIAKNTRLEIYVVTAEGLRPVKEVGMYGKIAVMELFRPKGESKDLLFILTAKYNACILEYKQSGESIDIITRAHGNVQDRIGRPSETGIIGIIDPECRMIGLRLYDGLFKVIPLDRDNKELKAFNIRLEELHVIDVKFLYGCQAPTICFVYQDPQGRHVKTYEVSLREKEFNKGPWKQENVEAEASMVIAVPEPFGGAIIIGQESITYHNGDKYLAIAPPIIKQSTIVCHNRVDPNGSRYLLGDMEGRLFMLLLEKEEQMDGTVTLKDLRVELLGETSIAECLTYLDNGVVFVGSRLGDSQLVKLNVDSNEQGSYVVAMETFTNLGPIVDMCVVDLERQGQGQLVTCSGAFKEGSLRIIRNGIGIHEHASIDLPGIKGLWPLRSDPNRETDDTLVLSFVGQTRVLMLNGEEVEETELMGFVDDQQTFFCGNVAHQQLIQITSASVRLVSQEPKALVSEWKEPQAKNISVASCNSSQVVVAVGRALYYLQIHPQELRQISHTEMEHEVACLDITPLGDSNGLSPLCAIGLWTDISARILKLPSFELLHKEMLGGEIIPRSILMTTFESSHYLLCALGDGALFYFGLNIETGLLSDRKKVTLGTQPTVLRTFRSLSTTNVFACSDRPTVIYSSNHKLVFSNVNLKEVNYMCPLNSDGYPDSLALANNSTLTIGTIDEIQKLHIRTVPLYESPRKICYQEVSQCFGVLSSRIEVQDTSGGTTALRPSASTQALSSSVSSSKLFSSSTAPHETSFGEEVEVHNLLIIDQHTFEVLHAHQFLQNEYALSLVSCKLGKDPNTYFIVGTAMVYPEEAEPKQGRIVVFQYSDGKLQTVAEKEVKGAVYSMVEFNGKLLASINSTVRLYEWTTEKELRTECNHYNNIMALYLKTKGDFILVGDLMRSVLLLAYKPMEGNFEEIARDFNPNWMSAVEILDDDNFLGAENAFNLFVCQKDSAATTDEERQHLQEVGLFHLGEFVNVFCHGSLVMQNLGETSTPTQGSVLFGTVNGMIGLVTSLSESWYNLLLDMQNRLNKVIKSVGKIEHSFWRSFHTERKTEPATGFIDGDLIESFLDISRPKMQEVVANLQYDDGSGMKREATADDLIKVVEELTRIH
As to the kind of experiment: HiBiT degradation assay, CK1α, Procedure A. The class given is cell-based. In outline:
(§1)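 Luminescence from HiBiT lytic detection reports remaining tagged protein after cells sit six hours at 37° C with compound across ten concentrations (10 μM down to 0.005 μM, 0.1% DMSO). A 4-parameter curve fit gives DC50 and Ymin.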

A further experiment concerns the target GSPT1 (Homo sapiens, UniProt P15170+Q96SW2). Kind of experiment: HiBiT degradation assay, GSPT1, Procedure A. Type of experiment: cell-based. Details: HiBit-GSPT1 KI HEK293(LgBit) Cells; host or cells: HEK293(LgBit) knock-in cells. The method, boiled down:
as §1

GSPT1, sequence (P15170 whole entry): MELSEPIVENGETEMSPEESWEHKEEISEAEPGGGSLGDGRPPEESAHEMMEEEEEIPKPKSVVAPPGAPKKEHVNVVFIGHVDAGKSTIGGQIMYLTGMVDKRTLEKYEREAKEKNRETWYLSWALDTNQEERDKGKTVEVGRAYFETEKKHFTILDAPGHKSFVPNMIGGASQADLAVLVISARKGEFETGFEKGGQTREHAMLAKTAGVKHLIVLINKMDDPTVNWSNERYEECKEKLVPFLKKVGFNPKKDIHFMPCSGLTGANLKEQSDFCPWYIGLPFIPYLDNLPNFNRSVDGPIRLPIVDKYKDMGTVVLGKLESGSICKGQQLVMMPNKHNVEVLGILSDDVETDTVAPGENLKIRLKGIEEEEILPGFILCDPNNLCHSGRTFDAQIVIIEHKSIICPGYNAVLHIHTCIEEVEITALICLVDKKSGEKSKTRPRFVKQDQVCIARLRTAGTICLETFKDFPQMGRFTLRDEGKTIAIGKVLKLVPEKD
GSPT1, sequence (Q96SW2 whole entry): as the sequence (Q96SW2 whole entry) above
GSPT1, sequence (Q16531 whole entry partner): as the sequence (Q16531 whole entry partner) above

On to `Cc1ccsc1-c1c(-c2ccc3c(c2)CN(C2CCC(=O)NC2=O)C3=O)cnn1C` (stereo not drawn) [Example 126], for which, at CK1α (six hours incubation), the “CK1α Ymin” value is “D (D = >10- 25% remaining)” and the DC50 is less than 25 nM. Besides, on GSPT1 (six hours incubation), the DC50 was no less than 25 nM and the “GSPT1 Ymin” value is on record as “F (F = >75-100% remaining)”.
For `CN1CCN(c2ccc(-c3c(-c4ccc5c(c4)CN(C4CCC(=O)NC4=O)C5=O)ncn3C)cc2)CC1` (stereo not drawn) [Example 355], in that order: “E (E = >25-75% remaining)”, less than 25 nM, no less than 25 nM and “F (F = >75-100% remaining)”.
For the compound `Cc1ncc(-c2c(-c3ccc4c(c3)CN(C3CCC(=O)NC3=O)C4=O)nc(C3CC3)n2C)cn1` (stereo not drawn) [Example 547, 3-(5-(2-cyclopropyl-1-methyl-5-(2-methylpyrimidin-5-yl)-1H-imidazol-4-yl)-1-oxoisoindolin-2-yl)piperidine-2,6-dione], on CK1α (six hours), the “CK1α Ymin” value was “D (D = >10- 25% remaining)” and the DC50 is less than 25 nM. For the same compound, at GSPT1 (six hours), the DC50 was no less than 25 nM and the “GSPT1 Ymin” value is “F (F = >75-100% remaining)”.
With `Cc1c(F)cccc1-c1c(-c2ccc3c(c2)CN(C2CCC(=O)NC2=O)C3=O)ncn1C` (stereo not drawn) [Example 169], at CK1α (six hours incubation), the “CK1α Ymin” value was “E (E = >25-75% remaining)” and the DC50 is less than 25 nM. Further, on GSPT1 (six hours incubation), the DC50 was no less than 25 nM and the “GSPT1 Ymin” value was “F (F = >75-100% remaining)”.
Taken in the same sequence, the figures for `O=C1CCC(N2Cc3cc(-c4c[nH]c(-c5ccccc5)n4)ccc3C2=O)C(=O)N1` (stereo not drawn) [Example 54, 3-(1-Oxo-5-(2-phenyl-1H-imidazol-4-yl)isoindolin-2-yl)piperidine-2,6-dione] were “C (C = 0-10% remaining)”, less than 25 nM, no less than 25 nM and “F (F = >75-100% remaining)”.
For `Cn1ncc(-c2ccc3c(c2)CN(C2CCC(=O)NC2=O)C3=O)c1-c1ccc(C2CCNCC2)cc1` (stereo not drawn) [Example 413], on CK1α (six hours), the “CK1α Ymin” value is “E (E = >25-75% remaining)” and the half-maximal degradation concentration (DC50) is no less than 25 nM. Moreover, at GSPT1 (six hours), the DC50 is no less than 25 nM and the “GSPT1 Ymin” value is recorded as “F (F = >75-100% remaining)”.
Turning to `Cn1ncc(-c2ccc3c(c2)CN(C2CCC(=O)NC2=O)C3=O)c1-c1ccccc1C1CC1` (stereo not drawn) [Example 115], at CK1α (six hours incubation), the “CK1α Ymin” value is “E (E = >25-75% remaining)” and the DC50 was less than 25 nM. At GSPT1 (six hours incubation), the DC50 is no less than 25 nM and the “GSPT1 Ymin” value is reported as “F (F = >75-100% remaining)”.
For `Cn1ncc(-c2ccc3c(c2)CN(C2CCC(=O)NC2=O)C3=O)c1-c1ccccc1Cl` (stereo not drawn) [Example 132], in that order: “E (E = >25-75% remaining)”, less than 25 nM, no less than 25 nM and “F (F = >75-100% remaining)”.
For the compound `Cc1ccc(C)c(-c2c(-c3ccc4c(c3)CN(C3CCC(=O)NC3=O)C4=O)ncn2C)c1` (stereo not drawn) [Example 234], at CK1α (six hours incubation), the “CK1α Ymin” value was “D (D = >10- 25% remaining)” and the DC50 was less than 25 nM. For the same compound, on GSPT1 (six hours incubation), the DC50 was no less than 25 nM and the “GSPT1 Ymin” value was “F (F = >75-100% remaining)”.
Turning to `Cc1ccc(-c2c(-c3ccc4c(c3)CN(C3CCC(=O)NC3=O)C4=O)ncn2C)c(F)c1` (stereo not drawn) [Example 239], at CK1α (six hours incubation), the “CK1α Ymin” value is “C (C = 0-10% remaining)” and the DC50 is less than 25 nM. At GSPT1 (six hours incubation), the DC50 is less than 25 nM and the “GSPT1 Ymin” value is recorded as “F (F = >75-100% remaining)”.
Turning to `Cc1ccc(-c2c(-c3ccc4c(c3)CN(C3CCC(=O)NC3=O)C4=O)cnn2C)c(F)c1` (stereo not drawn) [Example 94], at CK1α (six hours incubation), the “CK1α Ymin” value was “D (D = >10- 25% remaining)” and the DC50 is less than 25 nM. In addition, on GSPT1 (six hours incubation), the 50% degradation concentration (DC50) was no less than 25 nM and the “GSPT1 Ymin” value is recorded as “F (F = >75-100% remaining)”.
`Cn1cnc(-c2ccc3c(c2)CN(C2CCC(=O)NC2=O)C3=O)c1-c1ccccc1` (stereo not drawn) [Example 2, 3-(5-(1-Methyl-5-phenyl-1H-imidazol-4-yl)-1-oxoisoindolin-2-yl)piperidine-2,6-dione]: at CK1α (six hours incubation), the “CK1α Ymin” value is “C (C = 0-10% remaining)” and the DC50 was less than 25 nM. Also, at GSPT1 (six hours incubation), the DC50 was less than 25 nM and the “GSPT1 Ymin” value was “E (E = >25-75% remaining)”.
In the case of `COc1cc(-c2c(-c3ccc4c(c3)CN(C3CCC(=O)NC3=O)C4=O)cnn2C)ccc1C` (stereo not drawn) [Example 78], at CK1α (six hours incubation), the “CK1α Ymin” value was “E (E = >25-75% remaining)” and the DC50 is less than 25 nM. Moreover, at GSPT1 (six hours incubation), the DC50 was no less than 25 nM and the “GSPT1 Ymin” value is given as “F (F = >75-100% remaining)”.
Turning to `Cn1cc(-c2c(-c3ccc4c(c3)CN(C3CCC(=O)NC3=O)C4=O)cnn2C)cc1C#N` (stereo not drawn) [Example 375], at CK1α (six hours incubation), the “CK1α Ymin” value is listed as “D (D = >10- 25% remaining)” and the DC50 is less than 25 nM. At GSPT1 (six hours incubation), the DC50 is no less than 25 nM and the “GSPT1 Ymin” value is reported as “F (F = >75-100% remaining)”.
With `Cn1c(C2CCOCC2)nc(-c2ccc3c(c2)CN(C2CCC(=O)NC2=O)C3=O)c1-c1cncnc1` (stereo not drawn) [Example 535, 3-(5-(1-methyl-5-(pyrimidin-5-yl)-2-(tetrahydro-2H-pyran-4-yl)-1H-imidazol-4-yl)-1-oxoisoindolin-2-yl)piperidine-2,6-dione], on CK1α (six hours), the “CK1α Ymin” value is “D (D = >10- 25% remaining)” and the DC50 was no less than 25 nM. Also, at GSPT1 (six hours), the DC50 is no less than 25 nM and the “GSPT1 Ymin” value is “F (F = >75-100% remaining)”.
For `O=C1CCC(N2Cc3cc(-c4c[nH]nc4-c4ccccc4)ccc3C2=O)C(=O)N1` (stereo not drawn) [Example 5, 3-(1-Oxo-5-(3-phenyl-1H-pyrazol-4-yl)isoindolin-2-yl) piperidine-2,6-dione], on CK1α (six hours incubation), the “CK1α Ymin” value is recorded as “D (D = >10- 25% remaining)” and the DC50 is less than 25 nM. Further, on GSPT1 (six hours incubation), the DC50 is no less than 25 nM and the “GSPT1 Ymin” value is reported as “F (F = >75-100% remaining)”.
On to `Cc1nn(C)cc1-c1c(-c2ccc3c(c2)CN(C2CCC(=O)NC2=O)C3=O)cnn1C` (stereo not drawn) [Example 373], for which, on CK1α (six hours incubation), the “CK1α Ymin” value is recorded as “E (E = >25-75% remaining)” and the DC50 is no less than 25 nM. Besides, on GSPT1 (six hours incubation), the DC50 was no less than 25 nM and the “GSPT1 Ymin” value was “F (F = >75-100% remaining)”.
For `Cn1cnc(-c2ccc3c(c2)CN(C2CCC(=O)NC2=O)C3=O)c1-c1cccc(F)c1Cl` (stereo not drawn) [Example 262], at CK1α (six hours incubation), the “CK1α Ymin” value is “D (D = >10- 25% remaining)” and the DC50 was less than 25 nM. Also, on GSPT1 (six hours incubation), the DC50 is no less than 25 nM and the “GSPT1 Ymin” value is given as “F (F = >75-100% remaining)”.
For `Cc1cccc(-c2c(-c3ccc4c(c3)CN(C3CCC(=O)NC3=O)C4=O)ncn2C)c1F` (stereo not drawn) [Example 171], in that order: “D (D = >10- 25% remaining)”, less than 25 nM, less than 25 nM and “F (F = >75-100% remaining)”.
Turning to `Cn1ncc(-c2ccc3c(c2)CN(C2CCC(=O)NC2=O)C3=O)c1-c1cncc(N)c1` (stereo not drawn) [Example 371], on CK1α (six hours incubation), the “CK1α Ymin” value is on record as “D (D = >10- 25% remaining)” and the DC50 is no less than 25 nM. Also, on GSPT1 (six hours incubation), the DC50 was no less than 25 nM and the “GSPT1 Ymin” value was “F (F = >75-100% remaining)”.
For the compound `Cn1cnc(-c2ccc3c(c2)CN(C2CCC(=O)NC2=O)C3=O)c1-c1ccc2ncsc2c1` (stereo not drawn) [Example 502], at CK1α (six hours), the “CK1α Ymin” value is “C (C = 0-10% remaining)” and the DC50 was less than 25 nM. In addition, at GSPT1 (six hours), the DC50 was less than 25 nM and the “GSPT1 Ymin” value is on record as “E (E = >25-75% remaining)”.
Turning to `[2H]C([2H])([2H])n1ncc(-c2ccc3c(c2)CN(C2CCC(=O)NC2=O)C3=O)c1-c1ccc(OC(F)(F)F)cc1` (stereo not drawn) [Example 435, 3-(5-(1-(methyl-d3)-5-(4-(trifluoromethoxy)phenyl)-1H-pyrazol-4-yl)-1-oxoisoindolin-2-yl) piperidine-2,6-dione], on CK1α (six hours), the “CK1α Ymin” value is recorded as “E (E = >25-75% remaining)” and the DC50 was less than 25 nM. Also, on GSPT1 (six hours), the DC50 was less than 25 nM and the “GSPT1 Ymin” value is listed as “F (F = >75-100% remaining)”.
For the compound `Cn1ncc(-c2ccc3c(c2)CN(C2CCC(=O)NC2=O)C3=O)c1-c1ccc(C(=O)NC2CCCC2)cc1` (stereo not drawn) [Example 98], on CK1α (six hours incubation), the “CK1α Ymin” value is “E (E = >25-75% remaining)” and the DC50 was no less than 25 nM. For the same compound, on GSPT1 (six hours incubation), the DC50 is no less than 25 nM and the “GSPT1 Ymin” value was “F (F = >75-100% remaining)”.
As to `Cn1cnc(-c2ccc3c(c2)CN(C2CCC(=O)NC2=O)C3=O)c1-c1cccc2c1CCC2` (stereo not drawn) [Example 301], on CK1α (six hours incubation), the “CK1α Ymin” value was “D (D = >10- 25% remaining)” and the DC50 was less than 25 nM. Further, on GSPT1 (six hours incubation), the DC50 is no less than 25 nM and the “GSPT1 Ymin” value is on record as “F (F = >75-100% remaining)”.
For `Cn1ncc(-c2ccc3c(c2)CN(C2CCC(=O)NC2=O)C3=O)c1-c1ccc(C(C)(F)F)cc1` (stereo not drawn) [Example 541, 3-(5-(5-(4-(1,1-difluoroethyl)phenyl)-1-methyl-1H-pyrazol-4-yl)-1-oxoisoindolin-2-yl)piperidine-2,6-dione], on CK1α (six hours), the “CK1α Ymin” value is on record as “D (D = >10- 25% remaining)” and the DC50 is less than 25 nM. Further, on GSPT1 (six hours), the DC50 was less than 25 nM and the “GSPT1 Ymin” value is “F (F = >75-100% remaining)”.
As for `Cn1cnc(-c2ccc3c(c2)CN(C2CCC(=O)NC2=O)C3=O)c1-c1cccc(O)c1` (stereo not drawn) [Example 228], on CK1α (six hours incubation), the “CK1α Ymin” value was “C (C = 0-10% remaining)” and the DC50 was less than 25 nM. On GSPT1 (six hours incubation), the DC50 is no less than 25 nM and the “GSPT1 Ymin” value was “D (D = >10- 25% remaining)”.
As to `Cn1ncc(-c2ccc3c(c2)CN(C2CCC(=O)NC2=O)C3=O)c1-c1ccc2c(c1)OC(F)(F)O2` (stereo not drawn) [Example 428, 3-(5-(5-(2,2-difluorobenzo[d][1,3]dioxol-5-yl)-1-methyl-1H-pyrazol-4-yl)-1-oxoisoindolin-2-yl)piperidine-2,6-dione], at CK1α (six hours), the “CK1α Ymin” value was “C (C = 0-10% remaining)” and the DC50 was less than 25 nM. For the same compound, on GSPT1 (six hours), the DC50 is no less than 25 nM and the “GSPT1 Ymin” value was “F (F = >75-100% remaining)”.
